According to patent US20260116874A1, “HETEROAROMATIC INDOLESULFONAMIDES” (SEED Therapeutics, Inc., priority 2023, published 2026):
Read-outs that look alike come from different tables or passages of the source.

Tested on: HCT116 colorectal cells
Test: Cell viability assay (CellTiter-Glo) in HCT116 cells
Assay type: cell-based
Conditions: Homo sapiens
Description: HCT116 colorectal cells were used in these experiments. HCT116 cells were obtained from ATCC. The CellTiter-Glo® Luminescent Cell Viability Assay Reagent was obtained from Promega.
Into a 96-well plate, 3000 HCT116 cells were seeded with 100 μL of media (McCoy's 5A Medium supplemented with 10% FBS, 100 units penicillin, and 100 μg streptomycin per mL) 24h before the experiment. For compound treatment, the liquid handling system-Pico machine was used to prepare all the compounds. Each master plate contained serial dilution of 2 compounds, including the control compound E7820. 10 mM compound stock was added to each well of the assay plate to give final concentrations of […], 0.003, 0.002 and 0 μM. Each concentration was tested in triplicate. After 72h, cell viability was determined using CellTiter-Glo Luminescent Cell Viability Assay Reagent following the manufacturer's recommended protocol. Briefly, equilibrate the assay plate and its contents at room temperature for approximately 30 minutes. 100 μL of CellTiter-Glo reagent was added to each well of the assay plate and the contents were mixed for 2 minutes at 500 rpm on an orbital shaker to induce cell lysis (Fisherbrand). The plate was incubated at room temperature for 10 minutes to stabilize luminescent signal. Then the plate was immediately placed in a plate reader (PerkinElmer Multimode Plate Reader Envision2105) and the luminescence signal (0.5 second per well integration time) was determined. IC50 values were calculated using Graphpad Prism 9 software.
Cell viability assays were performed to compare the potency of Compound 1 to Compound 143.

[1] = HCT-116, 72h, CellTiter-Glo, read-out: HCT116 Assay (IC50)
[2] = HCT-116, FIG. 5, read-out: IC50 for inhibiting cell growth in HCT116 colorectal cells

| Compound | IC50 [1] | IC50 [2] |
| --- | --- | --- |
| Cc1ncc(S(=O)(=O)Nc2ccc(C)c3c(C#N)c[nH]c23)s1 [Compound 1, N-(3-cyano-4-methyl-1H-indol-7-yl)-2-methyl-thiazole-5-sulfonamide] | < 500 nM | 259 nM |
| [2H]C([2H])([2H])c1ncc(S(=O)(=O)Nc2ccc(C)c3c(C#N)c[nH]c23)s1 [Compound 143, N-(3-cyano-4-methyl-1H-indol-7-yl)-2-(methyl-d3)thiazole-5-sulfonamide] | < 500 nM | 255 nM |
